We go through 19 compounds from patent publication US12187701B2, “Taire family kinase inhibitors and uses thereof” (Dana-Farber Cancer Institute, Inc., priority 2018, dated 2025).

SMILES strings stand for the structures. Where two headings read alike, the source gives them in different places.

Test [1] addresses CDK16/CycY (Homo sapiens (Human), UniProt Q00536). As to the kind of experiment: Lanthascreen Eu kinase binding assay for CDK16/CycY. Here is the method:
Lanthascreen Eu kinase binding assays were conducted for CDK16/CycY at Life Technologies.
On the technique in general: Time-resolved FRET reads energy transfer from a long-lived donor to a nearby acceptor.

Test [2] concerns the target CDK2/CycA (Homo sapiens (Human), UniProt P24941). As to the kind of experiment: Z'LYTE kinase assay for CDK2/CycA at Km ATP. Type of test: biochemical.
Test [3] concerns the target Cdk14/CycY (Homo sapiens (Human), UniProt O94921). Briefly: Lanthascreen Eu kinase binding assay for Cdk14/CycY with 30 minute pre-incubation. The following applies: 30 minute pre-incubation of kinase with compound; read-out: IC50 CDK14 binding by Lanthascreen. Here is the method:
Lanthascreen Eu kinase binding assays were conducted for Cdk14/CycY largely as performed in the commercial assay service by Life Technologies, but included a 30 minute pre-incubation step of the kinase with candidate compounds to facilitate covalent bond formation.

Test [4] deals with HCT116 cells. Briefly: Antiproliferation assay, Cell Titer Glo, 72 hours. Type of test: cell-based. The procedure, abridged: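 HCT116 cells seeded at 750 cells/well in McCoy's 5A with 10% FBS and exposed to four-fold compound dilution series for 72 h at 37 °C, 5% CO2. Viability by CellTiter-Glo luminescence, quadruplicate; IC50 by non-linear regression.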
Where [5] appears, read: read-out: IC50 CDK16 Lanthascreen binding.
Setting [6] is: read-out: IC50 CDK2 Z′LYTE kinase assay.

Sequence of Cdk14/CycY (O94921 whole entry): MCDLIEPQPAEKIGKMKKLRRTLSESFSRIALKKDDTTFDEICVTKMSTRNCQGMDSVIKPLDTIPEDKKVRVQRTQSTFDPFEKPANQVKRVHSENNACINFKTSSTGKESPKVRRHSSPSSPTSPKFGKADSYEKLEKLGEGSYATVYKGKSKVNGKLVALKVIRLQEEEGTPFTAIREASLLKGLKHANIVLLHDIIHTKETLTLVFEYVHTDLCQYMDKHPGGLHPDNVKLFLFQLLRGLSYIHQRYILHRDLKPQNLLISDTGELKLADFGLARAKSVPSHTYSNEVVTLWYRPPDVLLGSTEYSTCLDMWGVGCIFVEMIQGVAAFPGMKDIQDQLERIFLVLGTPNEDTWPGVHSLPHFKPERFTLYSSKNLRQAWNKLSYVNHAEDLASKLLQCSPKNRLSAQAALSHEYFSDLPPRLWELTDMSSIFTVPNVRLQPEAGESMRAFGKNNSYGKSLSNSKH
Sequence of Cdk14/CycY (Q8ND76 whole entry partner): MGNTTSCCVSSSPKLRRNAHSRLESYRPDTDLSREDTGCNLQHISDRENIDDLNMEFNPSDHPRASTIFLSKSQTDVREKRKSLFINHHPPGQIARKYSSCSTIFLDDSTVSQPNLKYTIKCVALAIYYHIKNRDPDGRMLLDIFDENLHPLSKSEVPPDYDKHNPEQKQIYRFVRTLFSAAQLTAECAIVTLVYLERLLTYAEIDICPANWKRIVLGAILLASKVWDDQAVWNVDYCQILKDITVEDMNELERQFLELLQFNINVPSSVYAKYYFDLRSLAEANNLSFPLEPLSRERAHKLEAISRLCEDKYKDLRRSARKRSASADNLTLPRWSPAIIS
Sequence of CDK16/CycY (Q00536 whole entry): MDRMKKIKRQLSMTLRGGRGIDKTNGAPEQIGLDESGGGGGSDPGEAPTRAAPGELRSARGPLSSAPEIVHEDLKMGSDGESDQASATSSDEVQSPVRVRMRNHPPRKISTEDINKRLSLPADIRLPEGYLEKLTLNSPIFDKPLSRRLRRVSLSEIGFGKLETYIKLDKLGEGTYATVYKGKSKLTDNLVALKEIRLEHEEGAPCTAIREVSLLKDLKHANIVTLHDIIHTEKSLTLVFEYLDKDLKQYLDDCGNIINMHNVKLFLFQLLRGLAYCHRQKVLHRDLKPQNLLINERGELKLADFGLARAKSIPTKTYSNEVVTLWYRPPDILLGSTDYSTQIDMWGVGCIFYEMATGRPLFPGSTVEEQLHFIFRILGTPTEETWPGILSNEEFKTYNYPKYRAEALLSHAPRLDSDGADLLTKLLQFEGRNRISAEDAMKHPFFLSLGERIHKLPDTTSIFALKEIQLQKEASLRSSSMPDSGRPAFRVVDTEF
Sequence of CDK16/CycY (Q8ND76 whole entry partner): as the sequence (Q8ND76 whole entry partner) above

As usually defined, the IC50 is the concentration that inhibits the measured activity by half. Take `CN(C)C/C=C/C(=O)Nc1cccc(S(=O)(=O)N2CCC(N(C)C(=O)c3n[nH]cc3NC(=O)c3c(Cl)cccc3Cl)CC2)c1` [FMF-04-086-2, (E)-4-(2,6-dichlorobenzamido)-N-(1-((3-(4-(dimethylamino)but-2-enamido)phenyl)sulfonyl)piperidin-4-yl)-N-methyl-1H-pyrazole-3-carboxamide]: the IC50 was 894 nM in test [1] (setting [5]); 664 nM in test [2] (setting [6]); over 1000 nM in test [3]; over 10000 nM in test [4] (Homo sapiens, HCT-116, 72 h).

As to `CN(C)C/C=C/C(=O)Nc1cccc(S(=O)(=O)N2CCC(NC(=O)c3nscc3NC(=O)c3c(Cl)cccc3Cl)CC2)c1` [FMF-04-089-2, (E)-4-(2,6-dichlorobenzamido)-N-(1-((3-(4-(dimethylamino)but-2-enamido)phenyl)sulfonyl)piperidin-4-yl)isothiazole-3-carboxamide], the concentration for half-maximal inhibition (IC50) is 404 nM in test [1] (setting [5]); 439 nM in test [2] (setting [6]); over 1000 nM in test [3]; 3040 nM in test [4] (Homo sapiens, HCT-116, 72 h).

Regarding `COc1cccc(Cl)c1C(=O)Nc1c[nH]nc1C(=O)NC1CCN(S(=O)(=O)c2cccc(NC(=O)/C=C/CN(C)C)c2)CC1` [FMF-04-107-2, (E)-4-(2-chloro-6-methoxybenzamido)-N-(1-((3-(4-(dimethylamino)but-2-enamido)phenyl)sulfonyl)piperidin-4-yl)-1H-pyrazole-3-carboxamide], the IC50 in test [1] (read-out: CDK16 IC50) was found to be 2.3 nM; in test [1] (setting [5]), 2.3 nM; in test [2] (read-out: CDK2 IC50) it was 4.5 nM; in test [2] (setting [6]), 4.5 nM; in test [4], 524 nM; in test [4] (Homo sapiens, HCT-116, 72 h) it was 524 nM.

Regarding `CN(C)C/C=C/C(=O)Nc1cccc(S(=O)(=O)N2CCC(NC(=O)c3c(NC(=O)c4c(Cl)cccc4Cl)cnn3C)CC2)c1` [FMF-04-121-1, (E)-4-(2,6-dichlorobenzamido)-N-(1-((3-(4-(dimethylamino)but-2-enamido)phenyl)sulfonyl)piperidin-4-yl)-1-methyl-1H-pyrazole-5-carboxamide], the IC50 in test [1] (setting [5]) is 6700 nM; in test [2] (setting [6]), over 10000 nM; in test [3], 486 nM; in test [4] (Homo sapiens, HCT-116, 72 h) it was 2860 nM.

As for `CCC(=O)Nc1cccc(CN2CCC(NC(=O)c3n[nH]cc3NC(=O)c3c(Cl)cccc3Cl)CC2)c1` [FMF-04-172-2, 4-(2,6-dichlorobenzamido)-N-(1-(3-propionamidobenzyl)piperidin-4-yl)-1H-pyrazole-3-carboxamide], the IC50 was determined as 29.4 nM in test [1] (setting [5]); 19.6 nM in test [2] (setting [6]); 173 nM in test [4]; 123 nM in test [4] (Homo sapiens, HCT-116, 72 h).

For `Cc1[nH]nc(C(=O)NC2CCN(S(=O)(=O)c3cccc(NC(=O)/C=C/CN(C)C)c3)CC2)c1NC(=O)c1c(Cl)cccc1Cl` [FMF-04-181-2, (E)-4-(2,6-dichlorobenzamido)-N-(1-((3-(4-(dimethylamino)but-2-enamido)phenyl)sulfonyl)piperidin-4-yl)-5-methyl-1H-pyrazole-3-carboxamide], the half-maximal inhibitory concentration (IC50) was 124 nM in test [1] (setting [5]); 125 nM in test [2] (setting [6]); over 1000 nM in test [3]; over 10000 nM in test [4] (Homo sapiens, HCT-116, 72 h).

As for `CN(C)C/C=C/C(=O)Nc1cccc(S(=O)(=O)N2CCC(NC(=O)c3n[nH]c(-c4ccccc4)c3NC(=O)c3c(Cl)cccc3Cl)CC2)c1` [FMF-04-197-1, (E)-4-(2,6-dichlorobenzamido)-N-(1-((3-(4-(dimethylamino)but-2-enamido)phenyl)sulfonyl)piperidin-4-yl)-5-phenyl-1H-pyrazole-3-carboxamide], the IC50 in test [1] (setting [5]) is 5900 nM; in test [2] (setting [6]), 5900 nM; in test [3], 28 nM; in test [4] (Homo sapiens, HCT-116, 72 h), over 10000 nM.

`CC(C)c1[nH]nc(C(=O)NC2CCN(S(=O)(=O)c3cccc(NC(=O)/C=C/CN(C)C)c3)CC2)c1NC(=O)c1c(Cl)cccc1Cl` [FMF-04-199-1, (E)-4-(2,6-dichlorobenzamido)-N-(1-((3-(4-(dimethylamino)but-2-enamido)phenyl)sulfonyl)piperidin-4-yl)-5-isopropyl-1H-pyrazole-3-carboxamide]: the 50% inhibitory concentration (IC50) was 8900 nM in test [1] (setting [5]); over 10000 nM in test [2] (setting [6]); 1000 nM in test [3]; over 10000 nM in test [4] (Homo sapiens, HCT-116, 72 h).

Take `CN(C)C/C=C/C(=O)Nc1cccc(CN2CCC(NC(=O)c3n[nH]cc3NC(=O)c3c(F)cc(F)cc3F)CC2)c1` [FMF-04-200-2, (E)-N-(1-(3-(4-(dimethylamino)but-2-enamido)benzyl)piperidin-4-yl)-4-(2,4,6-trifluorobenzamido)-1H-pyrazole-3-carboxamide]: the IC50 was 110 nM in test [1] (setting [5]); 508 nM in test [2] (setting [6]); 17 nM in test [3]; 293 nM in test [4] (Homo sapiens, HCT-116, 72 h).

Consider `CN(C)C/C=C/C(=O)Nc1cccc(S(=O)(=O)N2CCC(NC(=O)c3n[nH]cc3NC(=O)c3ccccc3)CC2)c1` [FMF-05-027-2, (E)-4-benzamido-N-(1-((3-(4-(dimethylamino)but-2-enamido)phenyl)sulfonyl)piperidin-4-yl)-1H-pyrazole-3-carboxamide], for which the 50% inhibitory concentration (IC50) in test [1] (setting [5]) stood at 9.8 nM; in test [2] (setting [6]), 2.8 nM; in test [3], 3 nM; in test [4] (Homo sapiens, HCT-116, 72 h) it was 440 nM.

Consider `COc1cccc(Cl)c1C(=O)Nc1c[nH]nc1C(=O)NC1CCN(Cc2cccc(NC(=O)/C=C/CN(C)C)c2)CC1` [FMF-05-032-1, (E)-4-(2-chloro-6-methoxybenzamido)-N-(1-(3-(4-(dimethylamino)but-2-enamido)benzyl)piperidin-4-yl)-1H-pyrazole-3-carboxamide], for which the 50% inhibitory concentration (IC50) in test [1] (read-out: CDK16 IC50) came out at 8.2 nM; in test [1] (setting [5]) it was 8.2 nM; in test [2] (read-out: CDK2 IC50) it was 36 nM; in test [2] (setting [6]), 36 nM; in test [4] (Homo sapiens, HCT-116, 72 h), 115 nM.

On to `CCC(=O)Nc1cccc(S(=O)(=O)N2CCC(NC(=O)c3n[nH]cc3NC(=O)c3c(Cl)cccc3OC)CC2)c1` [FMF-05-033-1, 4-(2-chloro-6-methoxybenzamido)-N-(1-((3-propionamidophenyl)sulfonyl)piperidin-4-yl)-1H-pyrazole-3-carboxamide], for which the concentration for half-maximal inhibition (IC50) is 3.4 nM in test [1] (setting [5]); 3 nM in test [2] (setting [6]); 172 nM in test [4] (Homo sapiens, HCT-116, 72 h).

Take `C=CC(=O)Nc1ccc(CNC(=O)c2n[nH]cc2NC(=O)c2c(Cl)cccc2Cl)cc1` [FMF-05-064-1, N-(4-acrylamidobenzyl)-4-(2,6-dichlorobenzamido)-1H-pyrazole-3-carboxamide]: the IC50 in test [1] (setting [5]) stood at 478 nM; in test [2] (setting [6]) it was 15 nM; in test [3], 1700 nM; in test [4] (Homo sapiens, HCT-116, 72 h), 117 nM.

As to `CN(C)C/C=C/C(=O)Nc1ccc(N2CCC(NC(=O)c3n[nH]cc3NC(=O)c3c(Cl)cccc3Cl)CC2)cc1` [FMF-05-073-2, (E)-4-(2,6-dichlorobenzamido)-N-(1-(4-(4-(dimethylamino)but-2-enamido)phenyl)piperidin-4-yl)-1H-pyrazole-3-carboxamide], the 50% inhibitory concentration (IC50) was found to be 27.7 nM in test [1] (setting [5]); 17 nM in test [2] (setting [6]); 45 nM in test [3]; 541 nM in test [4] (Homo sapiens, HCT-116, 72 h).

As for `CN(C)C/C=C/C(=O)Nc1cccc(N2CCC(NC(=O)c3n[nH]cc3NC(=O)c3c(Cl)cccc3Cl)CC2)c1` [FMF-05-085-2, (E)-4-(2,6-dichlorobenzamido)-N-(1-(3-(4-(dimethylamino)but-2-enamido)phenyl)piperidin-4-yl)-1H-pyrazole-3-carboxamide], the half-inhibitory concentration (IC50) in test [1] (setting [5]) came out at 74.4 nM; in test [2] (setting [6]), 20 nM; in test [3], 27 nM; in test [4] (Homo sapiens, HCT-116, 72 h) it was 427 nM.

Consider `CN(C)C/C=C/C(=O)Nc1cccc(S(=O)(=O)N2CCC(NC(=O)c3n[nH]cc3NC(=O)C3CCC(F)(F)CC3)CC2)c1` [FMF-05-116-1, (E)-4-(4,4-difluorocyclohexane-1-carboxamido)-N-(1-((3-(4-(dimethylamino)but-2-enamido)phenyl)sulfonyl)piperidin-4-yl)-1H-pyrazole-3-carboxamide], for which the IC50 came to 140 nM in test [1] (setting [5]); 51.5 nM in test [2] (setting [6]); 8200 nM in test [4] (Homo sapiens, HCT-116, 72 h).

Consider `COc1ccccc1CC(=O)Nc1c[nH]nc1C(=O)NC1CCN(S(=O)(=O)c2cccc(NC(=O)/C=C/CN(C)C)c2)CC1` [FMF-05-117-1, (E)-N-(1-((3-(4-(dimethylamino)but-2-enamido)phenyl)sulfonyl)piperidin-4-yl)-4-(2-(2-methoxyphenyl)acetamido)-1H-pyrazole-3-carboxamide], for which the concentration for half-maximal inhibition (IC50) is 17 nM in test [1] (setting [5]); 5.71 nM in test [2] (setting [6]); 14 nM in test [3]; 395 nM in test [4] (Homo sapiens, HCT-116, 72 h).

Regarding `COc1cccc(OC)c1C(=O)Nc1c[nH]nc1C(=O)NC1CCN(S(=O)(=O)c2cccc(NC(=O)/C=C/CN(C)C)c2)CC1` [FMF-05-119-1, (E)-4-(2,6-dimethoxybenzamido)-N-(1-((3-(4-(dimethylamino)but-2-enamido)phenyl)sulfonyl)piperidin-4-yl)-1H-pyrazole-3-carboxamide], the IC50 was determined as 11.3 nM in test [1] (setting [5]); 24.6 nM in test [2] (setting [6]); 49.5 nM in test [3]; 4110 nM in test [4] (Homo sapiens, HCT-116, 72 h).

On to `COc1cccc(F)c1C(=O)Nc1c[nH]nc1C(=O)NC1CCN(Cc2cccc(NC(=O)/C=C/CN(C)C)c2)CC1` [IHK-01-013-2, (E)-N-(1-(3-(4-(dimethylamino)but-2-enamido)benzyl)piperidin-4-yl)-4-(2-fluoro-6-methoxybenzamido)-1H-pyrazole-3-carboxamide], for which the IC50 came to 7.4 nM in test [1] (setting [5]); 53 nM in test [2] (setting [6]); 4.2 nM in test [3]; 77 nM in test [4] (Homo sapiens, HCT-116, 72 h).
